Read-outs that look alike come from different tables or passages of the source.

Data set [1] is described as follows: Cross-species PK summary (mice, rats, dogs, monkeys). Type of data set: in vivo, and monkeys. The settings on record: for bioavailability: rat, rats. As for the experimental part:
PK parameters of lenvatinib were estimated by model independent analysis using a WinNonlin program (Version 4.1, Pharsight Corporation, Mountain View, CA). The time to reach the maximum plasma concentration (Tmax) and the maximum plasma concentration (Cmax) values were obtained directly from the plasma concentration data. Terminal half-life (T1/2) was calculated by ln2/ke, where ke is the slope of the regression line that fits the portion of the terminal phase (at least three time points) in the log-linear concentration–time curve. AUC0–t and AUMC0–t, the area under the concentration–time curves and the area under the first moment curve, from time = zero to time = t, respectively, were calculated using the lenvatinib concentrations in plasma by the linear/log trapezoidal method. AUC0–inf was calculated by AUC0–t + Ct/ke, and AUMC0–inf was AUMC0–t + Ct × t/ke + Ct/(ke)^2, where Ct is the last measurable concentration at time = t. The plasma concentration at time zero for the intravenous dose was extrapolated, while zero was used for the oral doses. Mean residence time (MRT), total plasma clearance (CLtot) and the volume of distribution at steady state (Vdss) were calculated by AUMC0–inf/AUC0–inf, Dose/AUC0–inf and CLtot × MRT, respectively. Oral bioavailability (F) was estimated by comparing dose-normalized AUC0–inf after oral (AUC0–inf.po) and intravenous (AUC0–inf.iv) administration as follows: F (%) = (AUC0–inf.po/AUC0–inf.iv) × 100.
One of the typical approaches for predicting human PK from animal PK is empirical allometric scaling. As the CLtot of lenvatinib was relatively low and Vdss of lenvatinib was low to medium, thus it is theoretically preferable to correct by fp for both parameters. The CLtot divided by fp (CLtot/fp) or Vdss divided by fp (Vdss/fp) were plotted against body weight (BW) by log–log scale, and a linear regression was performed to estimate a slope and intercept for linear regression. The BW used in the calculation was 0.02, 0.2, 10, 5, and 70 kg for mice, rats, dogs, monkeys, and humans, respectively. CLtot and Vdss of lenvatinib in humans were predicted by using the regression line and the BW of humans. As no PK data of lenvatinib are available for CLtot and Vdss, which can be estimated only from intravenous administration PK study in humans, it is not possible to assess predictability of the allometric scaling for these two parameters of lenvatinib in humans. However, it is possible to predict exposure of lenvatinib after oral administration (AUCoral) in humans from the allometry scaling of hepatic intrinsic clearance (CLint). As lenvatinib is mainly cleared by the liver, AUCoral is estimated by Fa × Fg × Dose/(fp × CLint)[9], where Fa, Fg, fp, and CLint are absorption at the gastrointestinal (GI) tract, metabolic availability at the GI, unbound fraction in plasma, and hepatic intrinsic clearance, respectively. The CLint is thus estimated by Fa × Fg × Dose/(fp × AUCoral) in all the animal species including humans just from PK data from oral administration. The allometric scaling approach was applied for CLint in mice, rats, dogs, and monkeys. The logarithmic plot of CLint and BW was performed for a linear regression and a regression line [log (CLint) = slope × log (BW) + intercept], which was derived by logarithmic transformation of the equation CLint = a × BW^b was obtained. The CLint predicted from the allometric scaling was compared to the observed CLint after oral administration of lenvatinib at 9 mg in humans.

A short description of data set [2]: Stability of lenvatinib in dog plasma and processed samples. It is filed as physicochemical, dogs. The note with it: dog plasma; for Freeze/thaw stability, mean percentage bias from the theoretical values: 3 cycles. As for the experimental part:
Calibration samples and QC samples for the reproducibility assessment were prepared by spiking 0.05 mL of the working standard solutions to blank plasma (0.05 mL), and QC samples for the stability assessment were prepared by fortifying 0.05 mL of the solution to 1.5 mL of bank plasma. Lenvatinib concentrations in plasma were 0.005, 0.01, 0.03, 0.1, 0.3, 1, 3, 10, 30, and 100 μg/mL for the calibration samples, and were 0.005, 0.01, 1, and 100 μg/mL for the QC samples for reproducibility assessment. Lenvatinib concentrations of QC samples for the stability assessment were 0.01, 1, and 80 μg/mL.
The developed method for the determination of lenvatinib concentrations in plasma was validated and the following validation parameters including linearity, selectivity, intra- and inter-batch reproducibility, extraction recovery, and stability were evaluated in accordance with the bioanalytical guidelines by United States Food and Drug Administration (US-FDA)[7]. […] In the linearity assessment, accuracy of each calibration sample was determined to ensure that relative error (RE) at each concentration was within ± 15% (within ± 20% at the LLOQ). […] Intra-batch accuracy and precision were evaluated using QC samples at the four concentrations, LLOQ, low QC (LQC), mid QC (MQC), and ULOQ. […] Inter-batch accuracy and precision were evaluated by testing a single sample at each concentration across five batches (n = 5 in total). […] Extraction recoveries of lenvatinib and the IS from plasma samples of the four species were evaluated. The recoveries of lenvatinib at the low, mid, and high QC levels (triplicates per concentration), and that of the IS (0.5 μg/mL) were determined. […] Stability of lenvatinib in plasma and processed samples was assessed at the low and high QC levels. Lenvatinib concentrations in samples after storage were compared to the theoretical concentrations and RE values were calculated. […] Freeze–thaw stability in plasma was evaluated up to three freeze–thaw cycles and frozen stability in plasma was evaluated at − 15 °C or below for 4 weeks (mice, rats, and dogs) or 6 weeks (monkeys). […]

For `COc1cc2nccc(Oc3ccc(NC(=O)NC4CC4)c(Cl)c3)c2cc1C(N)=O` [lenvatinib, Lenvatinib], in data set [1] (calculated from CLtot (iv), blood-to-plasma partition, hepatic blood flow, and bioavailability), the “availability in the intestine” value is listed as more than 0.7. Also, the clearance in data set [1] (mouse, dog, monkey, plasma, the other three species (mice, dogs, monkeys), intravenous 3 mg/kg, read-out: CLtot) is 3.97 to 6.13 mL/min/kg. Also, the bioavailability is 70% in data set [1] (mouse, dog, monkey, plasma, oral, 3 mg/kg, mice, dogs, monkeys, read-out: average bioavailability in the four species); 64.4 to 78.4% in data set [1] (mouse, dog, monkey, plasma, po, 3 mg/kg, range over mice, dogs, and monkeys, read-out: oral bioavailability); 64 to 78% in data set [1] (mouse, dog, monkey, plasma, po, range over mice, dogs, and monkeys, read-out: oral bioavailability). Besides, the “Freeze/thaw stability, mean percentage bias from the theoretical values” in data set [2] (HQC 80 μg/mL) stood at 0.6%; in data set [2] (MQC 1 μg/mL), 1.5%. In data set [2] (below − 15 °C, 4 weeks, HQC 80 μg/mL), the “Frozen stability, mean percentage bias from the theoretical values” stood at 3.1%.
